Assay results taken from patent US8076073B2, “Cholesterol and hedgehog signaling” (The Johns Hopkins University School of Medicine, priority 1998, dated 2011).
Entries after “also recorded” stand apart in the source; their conditions may differ.

Key:
[1] = system: enzymes of cholesterol biosynthesis; details: cited from earlier work
[2] = system: 7-dehydrocholesterol reductase; details: cited from earlier work
pregnant rats = details: treatment of pregnant rats; cited from earlier work
mice = mice with hypomorphic apoB mutation (truncated apoB, reduced cholesterol levels); cited from earlier work
Hh protein = target: T1, Hh protein (Drosophila melanogaster, UniProt Q02936); details: relatively low concentrations; nucleophile in the second step; cited from earlier work
T1 construct: made in house
T1 sequence (Q02936 1-471): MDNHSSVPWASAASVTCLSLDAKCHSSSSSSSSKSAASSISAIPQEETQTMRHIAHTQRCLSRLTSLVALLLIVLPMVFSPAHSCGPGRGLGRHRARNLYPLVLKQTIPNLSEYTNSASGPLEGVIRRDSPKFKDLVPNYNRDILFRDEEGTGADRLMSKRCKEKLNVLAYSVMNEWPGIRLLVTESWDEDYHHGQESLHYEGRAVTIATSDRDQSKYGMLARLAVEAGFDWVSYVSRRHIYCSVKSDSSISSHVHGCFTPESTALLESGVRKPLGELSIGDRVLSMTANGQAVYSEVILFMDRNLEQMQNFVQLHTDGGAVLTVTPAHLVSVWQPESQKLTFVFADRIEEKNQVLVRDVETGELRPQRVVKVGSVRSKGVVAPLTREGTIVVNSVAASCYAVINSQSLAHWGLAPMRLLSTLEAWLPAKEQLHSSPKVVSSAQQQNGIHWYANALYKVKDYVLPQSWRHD

[3] = system: pregnant ewes / newborn lambs; details: grazing by pregnant ewes; cited from earlier work
COS7 cells = assay: Jervine inhibition of cholesterol biosynthesis, [3H]-mevalonic acid labelling and HPLC sterol analysis; type: cell-based; set-up: radiolabelled cholesterol levels / another radiolabelled sterol, tentatively identified as zymosterol: dose or concentration left out as unconfirmed
Text: Given the structural similarities of these compounds to cholesterol and the similar teratogenic effects of cholesterol synthesis inhibitors upon the offspring of pregnant rats, a reasonable mechanism to consider for the effects of these plant sterol derivatives was the inhibition of cholesterol biosynthesis. Accordingly, we tested COS7 cultured cells treated with jervine for defects in cholesterol biosynthesis by labelling with [3H]-mevalonic acid and then extracting and analyzing radiolabelled, non-saponifiable lipids. […] Given the similarities in their teratogenic effects, this inhibition seems likely to underlie the teratogenic effects of both the synthetic and natural compounds.
Given the structural similarities of these compounds to cholesterol and the similar teratogenic effects of cholesterol synthesis inhibitors upon the offspring of pregnant rats, a reasonable mechanism to consider for the effects of these plant sterol derivatives was the inhibition of cholesterol biosynthesis. Accordingly, COS7 cultured cells treated with jervine were tested for defects in cholesterol biosynthesis by labelling with [3H]-mevalonic acid and then extracting and analyzing radiolabelled, non-saponifiable lipids. Metabolic labeling and sterol analysis was essentially as described (Popjak et al. J. Biol. Chem. 264: 630-6238.1989; Rilling et al. 1993 Arch. Biochem. Biophys. 301: 210-215.), with minor modifications. Briefly, COS-7 cells were plated at ˜35% confluence into two 60 mm dishes at 37° C. in 4 ml each of Dulbecco's modified Eagle's medium (DMEM) supplemented with 10% fetal bovine serum (FBS). After 24 hr of growth the medium in each dish was replaced with 2 ml fresh medium with 10% FBS; [^3H]-mevalonic acid (NEN #NET 176) brought to a specific activity of 0.8 Ci/mmol in a 1% solution of bovine serum albumin was added to this medium to a final concentration of […]. At this time, one dish received […] of a 4 mg/ml solution of jervine in ethanol (final concentration […] jervine), and the other received […] of ethanol. […]

[4] = COS7 cells labelled with [3H]-mevalonic acid, 24 hr, jervine (b16 and b71 print 28=|M), versus ethanol control

Cl.Cl.Clc1ccccc1CNCC1CCC(CNCc2ccccc2Cl)CC1 (stereo not drawn) [AY 9944R]
sterol precursor abnormally accumulated [1]: 7-dehydrocholesterol
inhibition of 7-dehydrocholesterol reductase [2]: inhibited
induction of HPE-like malformations (pregnant rats): HPE-like malformations can be induced

O=C(O)c1ccc(CCN2CCN(C/C=C/c3ccc(Cl)cc3)CC2)cc1 [BM 15.766]
sterol precursor abnormally accumulated [1]: 7-dehydrocholesterol
inhibition of 7-dehydrocholesterol reductase [2]: inhibited
induction of HPE-like malformations (pregnant rats): HPE-like malformations can be induced
teratogenesis, resulting defects (mice): severe holoprosencephaly

CC(C)CCC[C@@H](C)[C@H]1CC[C@H]2[C@@H]3CC=C4C[C@@H](O)CC[C@]4(C)[C@H]3CC[C@]12C [Cholesterol, cholesterol]
effect on in vitro autoprocessing reaction (Hh protein): stimulates

CCN(CC)CCOc1ccc(C(O)(Cc2ccc(Cl)cc2)c2ccc(C)cc2)cc1 (stereo not drawn) [Triparanol]
sterol precursor abnormally accumulated [1]: desmosterol
induction of HPE-like malformations (pregnant rats): HPE-like malformations can be induced

CC1=C2C[C@H]3[C@@H](CC=C4C[C@@H](O)CC[C@@]43C)[C@@H]2CC[C@]12O[C@@H]1C[C@H](C)CN[C@H]1[C@H]2C [cyclopamine]
congenital craniofacial malformations in newborn lambs [3]: responsible

CC1=C2C(=O)[C@H]3[C@@H](CC=C4C[C@@H](O)CC[C@@]43C)[C@@H]2CC[C@]12O[C@@H]1C[C@H](C)CN[C@H]1[C@H]2C [jervine]
another radiolabelled sterol, tentatively identified as zymosterol (COS7 cells; [4]): found to accumulate; also recorded: increased levels
radiolabelled cholesterol levels (COS7 cells; [4]): reduced levels
inhibition of cholesterol biosynthesis in cultured cells (COS7 cells; COS7 cells, jervine at these concentrations): inhibits cholesterol biosynthesis
congenital craniofacial malformations in newborn lambs [3]: responsible
